# Experimental data published in patent US4486593A, “2-,3-, or 4-Pyridinylmethylamino arylic acids as thromboxane A2 synthetase and 5-lipoxygenase inhibitors” (The Upjohn Company, priority 1983, dated 1984).
# Test system: 5-lipoxygenase
# Assay: 5-lipoxygenase inhibition: oxygen uptake of washed human platelets after arachidonic acid (oxygraph cells)
# Assay type: cell-based
# Conditions: arachidonic acid added to washed human platelets; oxygen uptake versus control cell; read-out: approximate ED50, 5-lipoxygenase inhibition (decrease of oxygen uptake)
# Procedure: The compounds of the present invention were also tested for 5-lipoxygenase inhibition. Arachidonic acid is added to washed human platlets and the oxygen uptake is measured using oxygraph cells. A decrease of oxygen uptake versus the control cell indicates inhibition of lipoxygenase. For a fuller description of the procedure see, Wallach, et al., Biochim. Biophys. Acta. 231:445 (1976).
compound,measurement,value
"COC(=O)c1cc(NCc2cccnc2)ccc1O [Example 3, 5-(3-Pyridinylmethylamino)salicylic Acid, Methyl Ester]",IC50,~10 µM
